Results taken from paper PMC8267566, “Human GPR17 missense variants identified in metabolic disease patients have distinct downstream signaling profiles” (The Journal of Biological Chemistry, 2021).

Assays:
Assay type in all cases: cell-based
hGPR17L-G136S-Tango = target: T1, hGPR17L-G136S-Tango (Homo sapiens, UniProt Q13304, G136S); assay: Tango β-arrestin recruitment assay; settings: HTLA cells, 30 μM MDL29,951
T1 construct: Tango fusion module; host or cells: HTLA (HEK293T-derived)
Experimental: (§1) HTLA cells were seeded at 10,000 cells/well into white, opaque, poly-D-lysine-coated 96-well plates and transfected with hGPR17L-WT-Tango or hGPR17L-variant-Tango plasmids the following day using lipofectamine 3000 according to the manufacturer's protocol. The next day, cells were incubated at 37 °C and 5% CO2 in serum-free growth media for a 4 h serum starvation. MDL29,951 was then diluted in assay buffer (HBSS, 20 mM HEPES, pH 7.2), added to the cells, and incubated for 16 h at 37 °C and 5% CO2. Drug treatment was decanted and 80 μl/well of Promega Bright-Glo reagent (diluted 20× in assay buffer) (E2610; Promega Corporation) was added and incubated at room temperature for 15 min. Luminescence (1 s per well integration time) was read on a Molecular Devices SpectraMax iD5 plate reader.

hGPR17L-D105N-Tango = target: T2, hGPR17L-D105N-Tango (Homo sapiens, UniProt Q13304, D105N); assay: Tango β-arrestin recruitment assay
T2 construct: Tango fusion module; host or cells: HTLA (HEK293T-derived)
Experimental: as §1

hGPR17L-A131T-Tango = target: T3, hGPR17L-A131T-Tango (Homo sapiens, UniProt Q13304, A131T); assay: Tango β-arrestin recruitment assay
T3 construct: Tango fusion module; host or cells: HTLA (HEK293T-derived)
Experimental: as §1

hGPR17L-R248Q-Tango = target: T4, hGPR17L-R248Q-Tango (Homo sapiens, UniProt Q13304, R248Q); assay: Tango β-arrestin recruitment assay
T4 construct: Tango fusion module; host or cells: HTLA (HEK293T-derived)
Experimental: as §1

hGPR17L-V96M-Tango = target: T5, hGPR17L-V96M-Tango (Homo sapiens, UniProt Q13304, V96M); assay: Tango β-arrestin recruitment assay; settings: HTLA cells, MDL29,951 0.5 nM to 30 μM
T5 construct: Tango fusion module; host or cells: HTLA (HEK293T-derived)
Experimental: as §1

hGPR17L-G354V-Tango = target: T6, hGPR17L-G354V-Tango (Homo sapiens, UniProt Q13304, G354V); assay: Tango β-arrestin recruitment assay
T6 construct: Tango fusion module; host or cells: HTLA (HEK293T-derived)
Experimental: as §1

hGPR17L-F43L-Tango = target: T7, hGPR17L-F43L-Tango (Homo sapiens, UniProt Q13304, F43L); assay: Tango β-arrestin recruitment assay
T7 construct: Tango fusion module; host or cells: HTLA (HEK293T-derived)
Experimental: as §1

hGPR17L-R301H-Tango = target: T8, hGPR17L-R301H-Tango (Homo sapiens, UniProt Q13304, R301H); assay: Tango β-arrestin recruitment assay
T8 construct: Tango fusion module; host or cells: HTLA (HEK293T-derived)
Experimental: as §1

hGPR17L-WT-Tango = target: T9, hGPR17L-WT-Tango (Homo sapiens, UniProt Q13304); assay: Tango β-arrestin recruitment assay
T9 construct: Tango fusion module; host or cells: HTLA (HEK293T-derived)
Experimental: as §1

hGPR17L-V103M-Tango = target: T10, hGPR17L-V103M-Tango (Homo sapiens, UniProt Q13304, V103M); assay: Tango β-arrestin recruitment assay
T10 construct: Tango fusion module; host or cells: HTLA (HEK293T-derived)
Experimental: as §1

hGPR17L-G354V = target: T11, hGPR17L-G354V (Homo sapiens, UniProt Q13304, G354V); assay: Calcium flux assay
T11 construct: expressed in transfected cells; host or cells: HEK293 (ATCC CRL-1573)
Experimental: (§2) HEK293 cells were seeded at 20,000 cells/well into black, optical bottom, poly-D-lysine coated 96-well plates. The following day, cells were transiently transfected with pcDNA3-HA-hGPR17L or pcDNA3-HA-hGPR17L-variants using lipofectamine 3000. Twenty-four hours after transfection, the growth medium and transfection mix were decanted and 100 μl/well assay buffer (HBSS, 20 mM HEPES, pH 7.2) and 100 μl/well Calcium 6 loading dye (R8190; Molecular Devices) were added to the plate and incubated at 37 °C, 5% CO2 for 1 h 45 min. Plate was allowed to equilibrate to room temperature on the bench top for 30 min. MDL29,951 diluted in assay buffer was added to the wells and fluorescence (485 nm excitation, 525 nm emission, and 515 nm automatic emission cutoff) was measured using a Molecular Devices FlexStation3 (Molecular Devices). For experiments with pertussis toxin, cells were pretreated with 100 ng/ml pertussis toxin overnight and 100 ng/ml pertussis toxin was included with Calcium 6 loading dye for calcium flux assays.

hGPR17L-G136S = target: T12, hGPR17L-G136S (Homo sapiens, UniProt Q13304, G136S); assay: Calcium flux assay; settings: HEK293, read-out: calcium response, % of the maximum response observed for hGPR17L-WT
T12 construct: expressed in transfected cells; host or cells: HEK293 (ATCC CRL-1573), transient transfection
Experimental: as §2

hGPR17L-V103M = target: T13, hGPR17L-V103M (Homo sapiens, UniProt Q13304, V103M); assay: Calcium flux assay
T13 construct: expressed in transfected cells; host or cells: HEK293 (ATCC CRL-1573), transient transfection
Experimental: as §2

hGPR17L-R301H = target: T14, hGPR17L-R301H (Homo sapiens, UniProt Q13304, R301H); assay: Calcium flux assay
T14 construct: expressed in transfected cells; host or cells: HEK293 (ATCC CRL-1573)
Experimental: as §2

hGPR17L-R248Q = target: T15, hGPR17L-R248Q (Homo sapiens, UniProt Q13304, R248Q); assay: Calcium flux assay
T15 construct: expressed in transfected cells; host or cells: HEK293 (ATCC CRL-1573), transient transfection
Experimental: as §2

hGPR17L-D105N = target: T16, hGPR17L-D105N (Homo sapiens, UniProt Q13304, D105N); assay: Calcium flux assay
T16 construct: expressed in transfected cells; host or cells: HEK293 (ATCC CRL-1573), transient transfection
Experimental: as §2

[1] = read-out: β-arrestin recruitment EC50, HTLA cells
[2] = read-out: Ca2+ EC50, HEK293, calcium mobilization

T11 sequence (Q13304 whole entry G354V): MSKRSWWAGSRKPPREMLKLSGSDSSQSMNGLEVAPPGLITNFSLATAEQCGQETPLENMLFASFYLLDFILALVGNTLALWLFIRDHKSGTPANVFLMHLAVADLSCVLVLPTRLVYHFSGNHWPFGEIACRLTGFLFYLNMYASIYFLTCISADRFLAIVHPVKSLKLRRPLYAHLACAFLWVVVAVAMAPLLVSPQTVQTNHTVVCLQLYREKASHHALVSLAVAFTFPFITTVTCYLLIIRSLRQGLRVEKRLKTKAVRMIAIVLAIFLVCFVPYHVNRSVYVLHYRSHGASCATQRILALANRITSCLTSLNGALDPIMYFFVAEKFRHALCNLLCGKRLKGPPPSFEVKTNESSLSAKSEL
T9 sequence (Q13304 whole entry, the tested form may be a part): as the sequence (Q13304 whole entry G354V) above, with V354G counted along it
T2 sequence (Q13304 whole entry D105N, the tested form may be a part): as the sequence (Q13304 whole entry G354V) above, with D105N, V354G counted along it
T16 sequence (Q13304 whole entry D105N): as the sequence (Q13304 whole entry G354V) above, with D105N, V354G counted along it
T3 sequence (Q13304 whole entry A131T, the tested form may be a part): as the sequence (Q13304 whole entry G354V) above, with A131T, V354G counted along it
T4 sequence (Q13304 whole entry R248Q, the tested form may be a part): as the sequence (Q13304 whole entry G354V) above, with R248Q, V354G counted along it
T15 sequence (Q13304 whole entry R248Q): as the sequence (Q13304 whole entry G354V) above, with R248Q, V354G counted along it
T13 sequence (Q13304 whole entry V103M): as the sequence (Q13304 whole entry G354V) above, with V103M, V354G counted along it
T10 sequence (Q13304 whole entry V103M, the tested form may be a part): as the sequence (Q13304 whole entry G354V) above, with V103M, V354G counted along it
T8 sequence (Q13304 whole entry R301H, the tested form may be a part): as the sequence (Q13304 whole entry G354V) above, with R301H, V354G counted along it
T14 sequence (Q13304 whole entry R301H): as the sequence (Q13304 whole entry G354V) above, with R301H, V354G counted along it
T7 sequence (Q13304 whole entry F43L, the tested form may be a part): as the sequence (Q13304 whole entry G354V) above, with F43L, V354G counted along it
T6 sequence (Q13304 whole entry G354V, the tested form may be a part): as the sequence (Q13304 whole entry G354V) above
T12 sequence (Q13304 whole entry G136S): as the sequence (Q13304 whole entry G354V) above, with G136S, V354G counted along it
T1 sequence (Q13304 whole entry G136S, the tested form may be a part): as the sequence (Q13304 whole entry G354V) above, with G136S, V354G counted along it
T5 sequence (Q13304 whole entry V96M, the tested form may be a part): as the sequence (Q13304 whole entry G354V) above, with V96M, V354G counted along it

## O=C(O)CCc1c(C(=O)O)[nH]c2cc(Cl)cc(Cl)c12 [MDL29,951]
hGPR17L-G136S-Tango
  agonist-stimulated β-arrestin recruitment: only a modest response
hGPR17L-D105N-Tango; HTLA cells
  β-arrestin recruitment Efficacy (% of WT span): 100 ± 5.0 % of WT span
  β-arrestin recruitment pEC50 ± SEM: 6.53 ± 0.03
hGPR17L-D105N-Tango; [1]
  EC50: 290 nM
hGPR17L-A131T-Tango; HTLA cells
  β-arrestin recruitment Efficacy (% of WT span): 97 ± 5.2 % of WT span
  β-arrestin recruitment pEC50 ± SEM: 6.55 ± 0.06
hGPR17L-A131T-Tango; [1]
  EC50: 280 nM
hGPR17L-R248Q-Tango; HTLA cells
  β-arrestin recruitment Efficacy (% of WT span): 73 ± 16 % of WT span
  β-arrestin recruitment pEC50 ± SEM: 7.55 ± 0.16
hGPR17L-R248Q-Tango; [1]
  EC50: 28 nM
hGPR17L-V96M-Tango
  agonist-stimulated β-arrestin recruitment: no apparent agonist-stimulated β-arrestin recruitment
hGPR17L-G354V-Tango; HTLA cells
  β-arrestin recruitment pEC50 ± SEM: 6.96 ± 0.04
hGPR17L-G354V-Tango; [1]
  EC50: 110 nM
hGPR17L-F43L-Tango; HTLA cells
  β-arrestin recruitment Efficacy (% of WT span): 61 ± 13 % of WT span
  β-arrestin recruitment pEC50 ± SEM: 7.08 ± 0.03
hGPR17L-F43L-Tango; [1]
  EC50: 83 nM
hGPR17L-R301H-Tango; HTLA cells
  β-arrestin recruitment Efficacy (% of WT span): 69 ± 9.0 % of WT span
  β-arrestin recruitment pEC50 ± SEM: 6.55 ± 0.04
hGPR17L-R301H-Tango; [1]
  EC50: 280 nM
hGPR17L-WT-Tango; HTLA cells
  maximum β-arrestin recruitment response: 1.78 ± 0.09 fold over baseline
  β-arrestin recruitment Efficacy (% of WT span): 100 % of WT span
  β-arrestin recruitment pEC50 ± SEM: 7.02 ± 0.02
hGPR17L-WT-Tango; [1]
  EC50: 96 nM
hGPR17L-V103M-Tango; HTLA cells
  β-arrestin recruitment Efficacy (% of WT span): 84 ± 13 % of WT span
  β-arrestin recruitment pEC50 ± SEM: 6.69 ± 0.05
hGPR17L-V103M-Tango; [1]
  EC50: 210 nM
hGPR17L-G354V; HEK293
  Ca2+ Efficacy (% of WT Emax): 92 ± 2.6 % of WT Emax
hGPR17L-G354V; HEK293, calcium mobilization
  Ca2+ pEC50 ± SEM: 7.05 ± 0.29
hGPR17L-G354V; [2]
  EC50: 89 nM
hGPR17L-G136S
  Emax: 3.6 ± 1.3%
hGPR17L-V103M; HEK293
  Ca2+ Efficacy (% of WT Emax): 119 ± 8.4 % of WT Emax
hGPR17L-V103M; HEK293, calcium mobilization
  Ca2+ pEC50 ± SEM: 6.66 ± 0.09
hGPR17L-V103M; [2]
  EC50: 220 nM
hGPR17L-R301H; HEK293
  Ca2+ Efficacy (% of WT Emax): 85 ± 3.6 % of WT Emax
hGPR17L-R301H; HEK293, calcium mobilization
  Ca2+ pEC50 ± SEM: 6.74 ± 0.14
hGPR17L-R301H; [2]
  EC50: 180 nM
hGPR17L-R248Q; HEK293
  Ca2+ Efficacy (% of WT Emax): 103 ± 25 % of WT Emax
hGPR17L-R248Q; HEK293, calcium mobilization
  Ca2+ pEC50 ± SEM: 6.92 ± 0.02
hGPR17L-R248Q; [2]
  EC50: 120 nM
hGPR17L-D105N
  calcium mobilization in the presence of pertussis toxin: reduced calcium mobilization
hGPR17L-D105N; hGPR17L-D105N
  fold less potent calcium response vs hGPR17L-WT: 6–7 fold
  reduction of efficacy of calcium response vs hGPR17L-WT: approximately 70%
hGPR17L-D105N; hGPR17L-D105N, HEK293
  Ca2+ Efficacy (% of WT Emax): 28 ± 4.5 % of WT Emax
hGPR17L-D105N; hGPR17L-D105N, HEK293, calcium mobilization
  Ca2+ pEC50 ± SEM: 6.21 ± 0.11
hGPR17L-D105N; read-out: Ca2+ EC50, hGPR17L-D105N, HEK293, calcium mobilization
  EC50: 620 nM
